Reference: US20260325487A1 (BS BIOTECHNA SPOLKA AKCYJNA, priority 2023, published 2026)
Like-named read-outs stand apart in the source and are kept apart here.

What was measured:
[1] = test system: SK-MES-1; assay: SRB anti-proliferative assay, SK-MES-1, with CalcuSyn combination index (Example 1); assay type: cell-based; details: Homo sapiens, SK-MES-1, 72 h, read-out: Zah. (inhibition of proliferation)
Experimental: (§1) Cells were thawed from ampoules stored in liquid nitrogen and cultured in petri dishes in appropriate culture medium according to Table 2, in a humidified 5% CO2 atmosphere at 37° C. Cells were passaged twice weekly using EDTA-Trypsin solution, pH 8. Counted cells with a viability of at least 90% as assessed with Trypan-Blue solution were used for anti-proliferative assays.
(§2) Twenty-four hours before the addition of the test compounds/combinations, cells were seeded into 384-well plates at 50 μL/well and a density of 10^3 cells/well, in the appropriate culture medium.
(§3) Solutions of the compounds were diluted in the test medium-RPMI-1640 and Opti-MEM in a 1:1 ratio, and the medium was supplemented with 2 mM glutamine and 5% fetal bovine serum FBS. After 72 h, colourimetric assessment of cell growth was performed by SRB. […] Unbound dye was removed by washing the plates (4×) in 1% (v/v) acetic acid, and protein-bound dye was extracted with 10 mM unbuffered Tris base and the optical density (A=540 nm) was determined in a BioTek Synergy H4 Hybrid computer microplate reader (BioTek Instruments USA). The entire washing/staining procedure was performed using a BioTek EL406 washing station (BioTek Instruments USA). The raw absorbance results were analysed in Microsoft Excel software using the formula:
(§4) [formula] • Where: • % Zahlnh-inhibition of proliferation • Am—absorbance of wells without cells (medium) • Ak—absorbance of control wells (cells treated with pure culture medium) • Ap—absorbance of wells treated with compounds
(§5) Each compound at the indicated concentrations was tested in triplicate in one experiment. Each experiment was repeated three times. Data analysis was supplemented with synergy assessment using CalcuSyn software. […] A CI value below 0.8 indicates synergism, 0.8-1.2 an additive effect, above 1.2 an antagonism.

[2] = test system: NCI-H520; assay: SRB anti-proliferative assay, NCI-H520, with CalcuSyn combination index (Example 1); assay type: cell-based; details: Homo sapiens, NCI-H520, 72 h, read-out: Zah. (inhibition of proliferation)
Experimental: as §1, §2, §3, §4, §5

[3] = test system: NCI-H226; assay: SRB anti-proliferative assay, NCI-H226, with CalcuSyn combination index (Example 1); assay type: cell-based; details: Homo sapiens, NCI-H226, 72 h, read-out: Zah. (inhibition of proliferation)
Experimental: as §1, §2, §3, §4, §5

[4] = test system: BxPC3; assay: SRB anti-proliferative assay, BxPC3, with CalcuSyn combination index (Example 1); assay type: cell-based; details: Homo sapiens, BXPC-3, 72 h, read-out: Zah. (inhibition of proliferation)
Experimental: as §1, §2, §3, §4, §5

[5] = test system: NCI-H1299; assay: SRB anti-proliferative assay, NCI-H1299, with CalcuSyn combination index (Example 1); assay type: cell-based; details: Homo sapiens, NCI-H1299, 72 h, read-out: Zah. (inhibition of proliferation)
Experimental: as §1, §2, §3, §4, §5

[6] = test system: 8MGBA; assay: SRB anti-proliferative assay, 8MGBA, molecular combination and nanoparticles, with combination index (Example III); assay type: cell-based; details: Homo sapiens, 8-MG-BA, 72 h
Experimental: (§6) Cells were thawed from ampoules stored in liquid nitrogen and cultured in petri dishes in the appropriate culture medium according to Table 16, in a humidified 5% CO2 atmosphere at 37° C. Cells were passaged twice weekly using EDTA-Trypsin solution, pH 8, as a separating agent. Counted cells with a viability of at least 90% as assessed with Trypan-Blue solution were used for anti-proliferation assays.
(§7) Twenty-four hours before the addition of the test compounds/combinations, cells were seeded into 384-well plates at 50 μL/well and a density of 10^3 cells/well, in the appropriate culture medium. […] Solutions of the compounds were diluted in the test medium—RPMI-1640 and Opti-MEM in a 1:1 ratio, and the medium was supplemented with 2 mM glutamine and 5% fetal bovine serum FBS.
After 72 h, colourimetric assessment of cell growth was performed by SRB. […] Unbound dye was removed by washing the plates (4×) in 1% (v/v) acetic acid, and protein-bound dye was extracted with 10 mM unbuffered Tris base and the optical density (A=540 nm) was determined in a BioTek Synergy H4 Hybrid computer microplate reader (BioTek Instruments USA). The entire washing/staining procedure was performed using a BioTek EL406 washing station (BioTek Instruments USA). The raw absorbance results were analysed in Microsoft Excel software using the formula:
as §4, §5

[7] = test system: 8 cell lines; assay: SRB anti-proliferative assay, summary over the panel of 8 cell lines (Example III); assay type: cell-based, human; details: CI analysis not possible
Experimental: as §6, §7
Unbound dye was removed by washing the plates (4×) in 1% (v/v) acetic acid, and protein-bound dye was extracted with 10 mM unbuffered Tris base and the optical density (A=540 nm) was determined in a BioTek Synergy H4 Hybrid computer microplate reader (BioTek Instruments USA). […] The raw absorbance results were analysed in Microsoft Excel software using the formula:
[formula] • Where: • % Zahlnh-inhibition of proliferation • Am—absorbance of wells without cells (medium) • Ak—absorbance of control wells (cells treated with pure culture medium) • Ap—absorbance of wells treated with compounds […]

Compound: C=CCNC1=C2C[C@@H](C)C[C@H](OC)[C@H](O)[C@@H](C)/C=C(\C)[C@H](OC(N)=O)[C@@H](OC)/C=C\C=C(/C)C(=O)NC(=CC1=O)C2=O [17AAG, 17-AAG (tanespimycin)]
- inhibition at 0.0031 µM [1]: 9.2%
- inhibition at 0.01 µM [1]: 12.7%
- inhibition at 0.03 µM [1]: 55.1%
- inhibition at 0.1 µM [1]: 80%
- inhibition at 0.3124 µM [1]: 85.2%
- inhibition at 1 µM [1]: 86.5%
- inhibition at 3.1392 µM [1]: 86.9%
- inhibition at 10 µM [1]: 87%
- inhibition at 0.0031 µM [2]: 5.9%
- inhibition at 0.01 µM [2]: 15.3%
- inhibition at 0.03 µM [2]: 28.3%
- inhibition at 0.1 µM [2]: 48.1%
- inhibition at 0.3124 µM [2]: 56.8%
- inhibition at 1 µM [2]: 59.9%
- inhibition at 3.1392 µM [2]: 63.5%
- inhibition at 10 µM [2]: 65.8%
- inhibition at 0.0031 µM [3]: 19.3%
- inhibition at 0.01 µM [3]: 27.3%
- inhibition at 0.03 µM [3]: 32%
- inhibition at 0.1 µM [3]: 43.8%
- inhibition at 0.3124 µM [3]: 54.8%
- inhibition at 1 µM [3]: 60.4%
- inhibition at 3.1392 µM [3]: 71.9%
- inhibition at 10 µM [3]: 72.6%
- inhibition at 0.0031 µM [4]: 1.7%
- inhibition at 0.01 µM [4]: 2.7%
- inhibition at 0.0314 µM [4]: 24.4%
- inhibition at 0.1 µM [4]: 54.7%
- inhibition at 0.3155 µM [4]: 75.9%
- inhibition at 1 µM [4]: 89.4%
- inhibition at 3.1546 µM [4]: 95.3%
- inhibition at 10 µM [4]: 95.2%
- inhibition at 0.0031 µM [5]: 5.1%
- inhibition at 0.01 µM [5]: 10.5%
- inhibition at 0.0314 µM [5]: 43.4%
- inhibition at 0.1 µM [5]: 80.8%
- inhibition at 0.3155 µM [5]: 93.4%
- inhibition at 1 µM [5]: 96.9%
- inhibition at 3.1546 µM [5]: 96.8%
- inhibition at 10 µM [5]: 95.3%
- inhibition at 0.0003163 µM ([6]; read-out: Zah. (inhibition of proliferation), 17AAG 0.3163 nM, Tables 18a/19a): -3.9%
- inhibition at 0.0003163 µM ([6]; read-out: Zah. (inhibition of proliferation), 17AAG 0.3163 nM, Tables 21a/22a): 6%
- inhibition at 0.001 µM ([6]; read-out: Zah. (inhibition of proliferation), 17AAG 1 nM, Tables 18a/19a): 9.8%
- inhibition at 0.001 µM ([6]; read-out: Zah. (inhibition of proliferation), 17AAG 1 nM, Tables 21a/22a): 15.7%
- inhibition at 0.0032 µM ([6]; read-out: Zah. (inhibition of proliferation), 17AAG 3.2 nM, Tables 18a/19a): 64.9%
- inhibition at 0.0032 µM ([6]; read-out: Zah. (inhibition of proliferation), 17AAG 3.2 nM, Tables 21a/22a): 4.7%
- inhibition at 0.01 µM ([6]; read-out: Zah. (inhibition of proliferation), 17AAG 10 nM, Tables 18a/19a): 89.5%
- inhibition at 0.01 µM ([6]; read-out: Zah. (inhibition of proliferation), 17AAG 10 nM, Tables 21a/22a): 7.8%
- inhibition at 0.0316 µM ([6]; read-out: Zah. (inhibition of proliferation), 17AAG 31.6 nM, Tables 18a/19a): 88.5%
- inhibition at 0.0316 µM ([6]; read-out: Zah. (inhibition of proliferation), 17AAG 31.6 nM, Tables 21a/22a): 20.1%
- inhibition at 0.1 µM ([6]; read-out: Zah. (inhibition of proliferation), 17AAG 100 nM, Tables 18a/19a): 84.3%
- inhibition at 0.1 µM ([6]; read-out: Zah. (inhibition of proliferation), 17AAG 100 nM, Tables 21a/22a): 37.4%
- inhibition at 0.3163 µM ([6]; read-out: Zah. (inhibition of proliferation), 17AAG 316.3 nM, Tables 18a/19a): 86%
- inhibition at 0.3163 µM ([6]; read-out: Zah. (inhibition of proliferation), 17AAG 316.3 nM, Tables 21a/22a): 64.6%
- inhibition at 1 µM ([6]; read-out: Zah. (inhibition of proliferation), 17AAG 1000 nM, Tables 18a/19a): 91.9%
- inhibition at 1 µM ([6]; read-out: Zah. (inhibition of proliferation), 17AAG 1000 nM, Tables 21a/22a): 81.1%
- inhibition at 0.0003163 µM ([6]; read-out: Zah. (inhibition of proliferation), 72 h, 17AAG 0.3163 nM): -3.9%
- inhibition at 0.001 µM ([6]; read-out: Zah. (inhibition of proliferation), 72 h, 17AAG 1 nM): 9.8%
- inhibition at 0.0032 µM ([6]; read-out: Zah. (inhibition of proliferation), 72 h, 17AAG 3.2 nM): 64.9%
- inhibition at 0.01 µM ([6]; read-out: Zah. (inhibition of proliferation), 72 h, 17AAG 10 nM): 89.5%
- inhibition at 0.0316 µM ([6]; read-out: Zah. (inhibition of proliferation), 72 h, 17AAG 31.6 nM): 88.5%
- inhibition at 0.1 µM ([6]; read-out: Zah. (inhibition of proliferation), 72 h, 17AAG 100 nM): 84.3%
- inhibition at 0.3163 µM ([6]; read-out: Zah. (inhibition of proliferation), 72 h, 17AAG 316.3 nM): 86%
- inhibition at 1 µM ([6]; read-out: Zah. (inhibition of proliferation), 72 h, 17AAG 1000 nM): 91.9%
- 17-AAG activity [7]: low
